What was measured:
[1] = system: GS-109-V-20 human skin cell fibroblasts; assay: Fibroblast assay: proliferation of GS-109-V-20 skin cell fibroblasts; format: cell-based; settings: for effect on GS-109-V-20 fibroblast proliferation in words: text
Procedure: The effect of methyl 3-O-3'-(N',N'-dimethylamino-n-propyl)-6-deoxy-D-glucopyranoside on the proliferative capacity of human GS-109-V-20 skin fibroblasts was measured with the use of ^3 H-thymidine incorporation assay. Cultured skin cells were detached from the surface of tissue culture flasks mechanically with a Teflon scraper. The cells were washed, resuspended in incubation medium and the viabilities determined. These cells were then plated in triplicate at a density of 1×10^3 cells/0.1 ml/microtiter well. To these cells was added 0.1 ml incubation medium containing the methyl 3-O-3'-(N',N'-dimethylamino-n-propyl)-6-deoxy-D-glucopyranoside compound.
(§1) After 3 days of culture, 1#uCi ^3 H-thymidine was added in 50 ul volume to each culture well of the microtiter plates. Eighteen hours later, each of the GS-109-V-20 cultures was examined morphologically for evidence of drug-induced toxicity such as cell rounding or granularity. The ^3 H-thymidine-pulsed cells were then precipitated and the amount of ^3 H-thymidine incorporation was counted on a liquid scintillation counter.
Methyl 3-O-3'-(N',N'-dimethylamino-n-propyl)-6-deoxy-D-glucopyranoside was suspended directly into the medium by extensive sonication, without being filter-sterilized. A range of doses of this compound was used to measure effects of this compound upon GS-109-V-20 cell proliferation. The following doses were used:
The human skin cell fibroblast line, GS-109-V-20, was obtained from the American Type Culture-Collection. […] These cells were selected for use because they are considered to exist in an initiated state, as opposed to being normal or transformed, and have a more extensive population doubling time and survival period in culture than do normal fibroblasts. In this regard, they would more closely reflect the biological characteristics of psoriatic or rheumatoid synovial fibroblasts which also proliferate more extensively than do normal fibroblasts, but not as extensively as immortalized transformed tumor cells.
The number of GS-109-V-20 cells was expanded for use in the described assays by culture in 25 cm^2 flasks at 37° C. in an atmosphere of 5% CO2 in air. At approximately 4-5 day intervals, or when confluence was reached, the cells were passaged. This was accomplished by detaching the cells by trypsinization, washing and reseeding the cells at a lower density into fresh tissue culture flasks.

[2] = system: GS-109-V-20 skin cells; assay: Morphological examination of GS-109-V-20 cultures for drug-induced toxicity; format: cell-based, human
Procedure: as §1

COC1O[C@H](C)[C@@H](O)[C@H](OCCCN(C)C)[C@H]1O (stereo partly drawn) [V, Methyl 3-O-3'-(N',N'-dimethylamino-n-propyl)-6-deoxy-D-glucopyranoside]
^3 H-Thymidine uptake by GS-109-V-20 skin cells ([1]; 0.001 ug/ml): 2,557 ± 258 cpm
^3 H-Thymidine uptake by GS-109-V-20 skin cells ([1]; 0.01 ug/ml): 976 ± 469 cpm
^3 H-Thymidine uptake by GS-109-V-20 skin cells ([1]; 0.1 ug/ml): 1,052 ± 177 cpm
^3 H-Thymidine uptake by GS-109-V-20 skin cells ([1]; 1 ug/ml): 1,237 ± 301 cpm
^3 H-Thymidine uptake by GS-109-V-20 skin cells ([1]; 2.5 ug/ml): 1,044 ± 106 cpm
^3 H-Thymidine uptake by GS-109-V-20 skin cells ([1]; 10 ug/ml): 900 ± 189 cpm
^3 H-Thymidine uptake by GS-109-V-20 skin cells ([1]; 25 ug/ml): 946 ± 41 cpm
^3 H-Thymidine uptake by GS-109-V-20 skin cells ([1]; 100 ug/ml): 647 ± 541 cpm
inhibition at 0.001 µg/mL ([1]; Homo sapiens, Fibroblast, 0.001 ug/ml, read-out: % effect on GS-109-V-20 proliferation): 12%
inhibition at 0.01 µg/mL ([1]; Homo sapiens, Fibroblast, 0.01 ug/ml, read-out: % effect on GS-109-V-20 proliferation): 66%
inhibition at 0.1 µg/mL ([1]; Homo sapiens, Fibroblast, 0.1 ug/ml, read-out: % effect on GS-109-V-20 proliferation): 64%
inhibition at 1 µg/mL ([1]; Homo sapiens, Fibroblast, 1 ug/ml, read-out: % effect on GS-109-V-20 proliferation): 58%
inhibition at 2.5 µg/mL ([1]; Homo sapiens, Fibroblast, 2.5 ug/ml, read-out: % effect on GS-109-V-20 proliferation): 64%
inhibition at 10 µg/mL ([1]; Homo sapiens, Fibroblast, 10 ug/ml, read-out: % effect on GS-109-V-20 proliferation): 69%
inhibition at 25 µg/mL ([1]; Homo sapiens, Fibroblast, 25 ug/ml, read-out: % effect on GS-109-V-20 proliferation): 68%
inhibition at 100 µg/mL ([1]; Homo sapiens, Fibroblast, 100 ug/ml, read-out: % effect on GS-109-V-20 proliferation): 78%
effect on GS-109-V-20 fibroblast proliferation in words ([1]; listed as Methyl 3-O-3'-(N',N'-dimethylamino-n-propyl)-6-deoxy-D-glucopyranoside): inhibitory effects on the proliferation of GS-109-V-20 human skin cell fibroblasts
effect on GS-109-V-20 fibroblast proliferation in words ([1]; listed as methyl 3-O-3'-(N',N'-dimethylamino-n-propyl)-6-deoxy-D-glucopyranoside): A significant inhibitory effect was observed in a non-dose-dependent manner
cytotoxicity in GS-109-V-20 cultures, in words [2]: without evidence of cytotoxicity

From patent US5298494A, “Monosaccharides having anti-proliferation and anti-inflammatory activity, compositions and uses thereof” (Greenwich Pharmaceuticals Incorporated, priority 1993, dated 1994)
